# Laboratory results as given in the kinase profiling compilation of Christmann-Franck et al. (2016).
# Columns and labels:
# Assay in all cases: KINOMEscan competition binding
# Conditions in all cases: compound 10.0 µM
# [1] = test system: EGFR (human), P00533 [T790M/L858R]
# [2] = biological target: MAPK7 (human) (UniProt Q13164)
# [3] = biological target: EIF2AK1 (human) (UniProt Q9BQI3)
# [4] = biological target: MAPKAPK5 (human) (UniProt Q8IW41)
# [5] = test system: FLT3 (human), P36888 [R834Q]
# [6] = biological target: MAP4K1 (human) (UniProt Q92918)
# [7] = biological target: ACVR1 (human) (UniProt Q04771)
# [8] = biological target: CDC42BPA (human) (UniProt Q5VT25)
# [9] = biological target: PIK3CB (human) (UniProt P42338)
# [10] = biological target: MAP3K12 (human) (UniProt Q12852)
# [11] = biological target: DYRK1A (human) (UniProt Q13627)
# [12] = biological target: PRKG2 (human) (UniProt Q13237)
# [13] = biological target: EPHA6 (human) (UniProt Q9UF33)
# [14] = biological target: CAMK2G (human) (UniProt Q13555)
# [15] = biological target: MTOR (human) (UniProt P42345)
# [16] = biological target: NIM1 (human) (UniProt Q8IY84)
# [17] = biological target: MAP3K11 (human) (UniProt Q16584)
# [18] = biological target: CSNK1E (human) (UniProt P49674)
# [19] = biological target: CSNK1A1 (human) (UniProt P48729)
# [20] = biological target: GRK7 (human) (UniProt Q8WTQ7)
# [21] = biological target: ACVRL1 (human) (UniProt P37023)
# [22] = biological target: MAP4K3 (human) (UniProt Q8IVH8)
# [23] = biological target: EPHB1 (human) (UniProt P54762)
# [24] = biological target: MAP2K6 (human) (UniProt P52564)
# [25] = biological target: STK25 (human) (UniProt O00506)
# [26] = biological target: MAPKAPK2 (human) (UniProt P49137)
# [27] = biological target: CLK1 (human) (UniProt P49759)
# [28] = biological target: CDK13 (human) (UniProt Q14004)
# [29] = biological target: AKT1 (human) (UniProt P31749)
# [30] = biological target: IKBKE (human) (UniProt Q14164)
# [31] = biological target: GRK1 (human) (UniProt Q15835)
# [32] = biological target: STK17A (human) (UniProt Q9UEE5)
# [33] = biological target: CLK2 (human) (UniProt P49760)
# [34] = biological target: CDC42BPG (human) (UniProt Q6DT37)
# [35] = biological target: AURKB (human) (UniProt Q96GD4)
# [36] = biological target: PIK3C2B (human) (UniProt O00750)
# [37] = biological target: LCK (human) (UniProt P06239)
# [38] = biological target: TIE1 (human) (UniProt P35590)
# [39] = biological target: CSNK1G2 (human) (UniProt P78368)
# [40] = biological target: MARK1 (human) (UniProt Q9P0L2)
# Sequence of CLK2 (human) (P49760 whole entry, looked up): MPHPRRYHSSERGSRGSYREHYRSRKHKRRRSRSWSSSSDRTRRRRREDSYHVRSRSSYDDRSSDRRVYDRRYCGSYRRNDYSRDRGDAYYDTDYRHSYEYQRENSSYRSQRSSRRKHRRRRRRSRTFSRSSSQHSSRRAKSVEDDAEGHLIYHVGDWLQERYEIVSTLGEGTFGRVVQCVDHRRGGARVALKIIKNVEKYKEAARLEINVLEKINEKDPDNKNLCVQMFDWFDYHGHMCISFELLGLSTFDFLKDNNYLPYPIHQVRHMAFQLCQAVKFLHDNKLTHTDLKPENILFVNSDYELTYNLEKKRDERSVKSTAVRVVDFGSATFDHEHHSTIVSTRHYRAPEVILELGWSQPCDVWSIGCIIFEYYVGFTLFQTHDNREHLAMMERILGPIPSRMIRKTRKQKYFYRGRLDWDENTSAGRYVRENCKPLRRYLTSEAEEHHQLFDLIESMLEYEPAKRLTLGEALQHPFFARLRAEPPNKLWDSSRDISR
# Sequence of NIM1 (human) (Q8IY84 whole entry, looked up): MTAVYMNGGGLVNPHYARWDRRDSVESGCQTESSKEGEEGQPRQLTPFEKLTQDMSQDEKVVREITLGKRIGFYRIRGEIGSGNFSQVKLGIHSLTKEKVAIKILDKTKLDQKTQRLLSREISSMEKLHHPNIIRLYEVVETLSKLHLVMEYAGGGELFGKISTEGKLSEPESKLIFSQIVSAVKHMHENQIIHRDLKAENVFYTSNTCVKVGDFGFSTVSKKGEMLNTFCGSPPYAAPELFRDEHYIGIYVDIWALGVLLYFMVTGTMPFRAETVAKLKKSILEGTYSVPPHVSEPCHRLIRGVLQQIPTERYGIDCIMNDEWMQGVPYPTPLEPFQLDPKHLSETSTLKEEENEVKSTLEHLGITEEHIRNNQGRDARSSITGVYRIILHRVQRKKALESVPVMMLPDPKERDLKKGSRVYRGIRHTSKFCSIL
# Sequence of CDC42BPA (human) (Q5VT25 whole entry, looked up): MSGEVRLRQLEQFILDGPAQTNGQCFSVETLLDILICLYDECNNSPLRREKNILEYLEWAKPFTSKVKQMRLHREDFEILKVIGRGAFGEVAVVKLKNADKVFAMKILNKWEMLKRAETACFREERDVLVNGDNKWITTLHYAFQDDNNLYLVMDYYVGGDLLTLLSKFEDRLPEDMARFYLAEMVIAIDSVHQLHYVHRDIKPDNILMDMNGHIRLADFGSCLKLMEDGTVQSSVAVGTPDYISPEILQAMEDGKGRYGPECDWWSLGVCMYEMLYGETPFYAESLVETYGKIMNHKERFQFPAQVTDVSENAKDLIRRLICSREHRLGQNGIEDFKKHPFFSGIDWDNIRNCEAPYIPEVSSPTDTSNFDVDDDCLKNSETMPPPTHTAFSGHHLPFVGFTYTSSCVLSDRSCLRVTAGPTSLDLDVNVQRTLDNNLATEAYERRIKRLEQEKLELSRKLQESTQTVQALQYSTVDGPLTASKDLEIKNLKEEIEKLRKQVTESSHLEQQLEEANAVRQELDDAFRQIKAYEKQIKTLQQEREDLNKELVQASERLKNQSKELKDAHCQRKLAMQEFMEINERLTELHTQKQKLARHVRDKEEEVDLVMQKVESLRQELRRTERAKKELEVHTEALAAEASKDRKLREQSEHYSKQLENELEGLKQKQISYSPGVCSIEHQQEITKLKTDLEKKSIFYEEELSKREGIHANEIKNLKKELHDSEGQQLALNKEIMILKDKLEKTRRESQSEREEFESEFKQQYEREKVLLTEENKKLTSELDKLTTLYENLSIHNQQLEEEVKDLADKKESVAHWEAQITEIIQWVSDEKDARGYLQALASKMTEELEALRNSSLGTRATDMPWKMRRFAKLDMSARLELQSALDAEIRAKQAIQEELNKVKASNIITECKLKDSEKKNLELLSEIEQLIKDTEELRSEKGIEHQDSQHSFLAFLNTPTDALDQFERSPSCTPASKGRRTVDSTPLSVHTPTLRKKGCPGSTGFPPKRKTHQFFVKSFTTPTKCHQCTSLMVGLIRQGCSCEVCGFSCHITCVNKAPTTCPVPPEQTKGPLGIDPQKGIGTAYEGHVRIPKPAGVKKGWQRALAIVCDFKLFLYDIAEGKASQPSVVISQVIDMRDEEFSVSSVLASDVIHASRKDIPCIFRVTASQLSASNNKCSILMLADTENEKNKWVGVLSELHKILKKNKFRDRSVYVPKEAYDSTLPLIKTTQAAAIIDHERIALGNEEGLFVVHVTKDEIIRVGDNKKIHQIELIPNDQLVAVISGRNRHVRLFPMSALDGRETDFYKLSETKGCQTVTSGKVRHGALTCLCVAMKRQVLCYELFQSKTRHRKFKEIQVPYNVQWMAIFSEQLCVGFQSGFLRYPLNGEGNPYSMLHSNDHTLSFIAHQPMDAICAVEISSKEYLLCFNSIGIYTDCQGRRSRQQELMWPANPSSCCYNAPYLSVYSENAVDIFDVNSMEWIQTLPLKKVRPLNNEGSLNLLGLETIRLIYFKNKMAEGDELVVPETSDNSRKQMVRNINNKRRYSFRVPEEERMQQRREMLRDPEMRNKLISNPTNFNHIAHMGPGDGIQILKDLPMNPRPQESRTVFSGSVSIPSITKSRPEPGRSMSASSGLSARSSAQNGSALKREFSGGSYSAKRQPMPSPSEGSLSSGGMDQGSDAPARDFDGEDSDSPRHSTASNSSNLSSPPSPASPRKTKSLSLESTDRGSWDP
# Sequence of EIF2AK1 (human) (Q9BQI3 whole entry, looked up): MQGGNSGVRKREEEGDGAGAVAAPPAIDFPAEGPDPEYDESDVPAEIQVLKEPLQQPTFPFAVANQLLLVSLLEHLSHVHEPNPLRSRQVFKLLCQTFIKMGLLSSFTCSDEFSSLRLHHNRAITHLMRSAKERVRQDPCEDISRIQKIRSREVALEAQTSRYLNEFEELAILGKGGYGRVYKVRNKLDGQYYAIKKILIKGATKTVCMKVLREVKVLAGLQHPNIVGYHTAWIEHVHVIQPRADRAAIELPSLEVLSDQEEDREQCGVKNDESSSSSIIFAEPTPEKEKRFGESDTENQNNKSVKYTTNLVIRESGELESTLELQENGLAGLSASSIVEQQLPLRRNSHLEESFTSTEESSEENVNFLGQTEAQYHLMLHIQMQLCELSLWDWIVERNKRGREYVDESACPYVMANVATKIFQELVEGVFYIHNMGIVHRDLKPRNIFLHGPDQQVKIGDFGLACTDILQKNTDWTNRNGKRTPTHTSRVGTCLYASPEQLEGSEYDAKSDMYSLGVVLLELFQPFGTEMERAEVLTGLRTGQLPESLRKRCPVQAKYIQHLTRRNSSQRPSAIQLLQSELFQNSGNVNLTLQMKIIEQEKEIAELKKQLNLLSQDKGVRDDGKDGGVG
# Sequence of CAMK2G (human) (Q13555 whole entry, looked up): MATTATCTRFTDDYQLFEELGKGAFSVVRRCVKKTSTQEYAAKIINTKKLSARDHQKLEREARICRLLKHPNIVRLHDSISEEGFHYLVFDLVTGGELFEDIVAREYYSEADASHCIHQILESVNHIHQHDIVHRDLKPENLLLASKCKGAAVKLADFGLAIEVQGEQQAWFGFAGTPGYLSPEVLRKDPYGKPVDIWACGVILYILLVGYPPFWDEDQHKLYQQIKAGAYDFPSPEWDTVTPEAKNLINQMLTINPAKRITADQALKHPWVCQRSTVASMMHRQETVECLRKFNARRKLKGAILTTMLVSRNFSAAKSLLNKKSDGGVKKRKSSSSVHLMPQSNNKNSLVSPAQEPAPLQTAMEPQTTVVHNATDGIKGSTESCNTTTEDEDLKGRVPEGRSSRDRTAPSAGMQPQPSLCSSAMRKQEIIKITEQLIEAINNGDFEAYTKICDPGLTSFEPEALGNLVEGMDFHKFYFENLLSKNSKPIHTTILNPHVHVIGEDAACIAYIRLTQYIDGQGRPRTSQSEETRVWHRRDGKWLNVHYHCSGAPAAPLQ
# Sequence of STK25 (human) (O00506 whole entry, looked up): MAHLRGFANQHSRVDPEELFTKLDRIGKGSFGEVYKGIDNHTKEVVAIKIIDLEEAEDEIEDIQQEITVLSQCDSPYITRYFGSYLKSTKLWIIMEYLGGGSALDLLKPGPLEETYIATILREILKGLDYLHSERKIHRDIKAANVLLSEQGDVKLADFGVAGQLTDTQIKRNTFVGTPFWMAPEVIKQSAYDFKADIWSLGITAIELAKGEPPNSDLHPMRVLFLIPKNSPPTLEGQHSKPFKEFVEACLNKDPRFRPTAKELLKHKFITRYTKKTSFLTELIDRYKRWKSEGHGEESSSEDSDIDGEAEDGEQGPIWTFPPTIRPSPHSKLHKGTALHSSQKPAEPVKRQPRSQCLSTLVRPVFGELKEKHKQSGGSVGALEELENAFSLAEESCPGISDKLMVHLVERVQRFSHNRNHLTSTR
# Sequence of GRK7 (human) (Q8WTQ7 whole entry, looked up): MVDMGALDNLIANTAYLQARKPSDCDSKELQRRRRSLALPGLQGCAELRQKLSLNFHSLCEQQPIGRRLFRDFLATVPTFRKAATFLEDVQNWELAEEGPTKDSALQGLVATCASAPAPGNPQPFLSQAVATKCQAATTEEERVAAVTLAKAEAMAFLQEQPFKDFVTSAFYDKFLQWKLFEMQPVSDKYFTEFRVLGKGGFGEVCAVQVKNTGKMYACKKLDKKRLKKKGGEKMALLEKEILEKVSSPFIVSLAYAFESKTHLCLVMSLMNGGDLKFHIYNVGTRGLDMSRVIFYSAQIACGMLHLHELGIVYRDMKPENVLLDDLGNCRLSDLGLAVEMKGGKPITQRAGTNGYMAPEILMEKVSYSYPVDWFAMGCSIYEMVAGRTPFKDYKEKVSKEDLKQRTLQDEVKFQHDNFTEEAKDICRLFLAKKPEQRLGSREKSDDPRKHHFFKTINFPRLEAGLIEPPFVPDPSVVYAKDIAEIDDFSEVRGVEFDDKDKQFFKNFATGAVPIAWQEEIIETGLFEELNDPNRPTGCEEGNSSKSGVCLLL
SMILES,"kinase still bound, per cent of control [1]","kinase still bound, per cent of control [2]","kinase still bound, per cent of control [3]","kinase still bound, per cent of control [4]","kinase still bound, per cent of control [5]","kinase still bound, per cent of control [6]","kinase still bound, per cent of control [7]","kinase still bound, per cent of control [8]","kinase still bound, per cent of control [9]","kinase still bound, per cent of control [10]","kinase still bound, per cent of control [11]","kinase still bound, per cent of control [12]","kinase still bound, per cent of control [13]","kinase still bound, per cent of control [14]","kinase still bound, per cent of control [15]","kinase still bound, per cent of control [16]","kinase still bound, per cent of control [17]","kinase still bound, per cent of control [18]","kinase still bound, per cent of control [19]","kinase still bound, per cent of control [20]",also measured
CCN1CCN(C(=O)Cc2ccc(Nc3ncc(F)c(Nc4ccc(C(=O)Nc5ccccc5Cl)cc4)n3)cc2)CC1,76%,100%,66%,100%,36%,38%,13%,100%,83%,71%,47%,62%,46%,55%,20%,79%,4.6%,100%,96%,71%,"kinase still bound, per cent of control [21]: 100%; kinase still bound, per cent of control [22]: 42%; kinase still bound, per cent of control [23]: 66%; kinase still bound, per cent of control [24]: 44%; kinase still bound, per cent of control [25]: 35%; kinase still bound, per cent of control [26]: 100%; kinase still bound, per cent of control [27]: 22%; kinase still bound, per cent of control [28]: 100%; kinase still bound, per cent of control [29]: 100%; kinase still bound, per cent of control [30]: 100%; kinase still bound, per cent of control [31]: 100%; kinase still bound, per cent of control [32]: 2.6%; kinase still bound, per cent of control [33]: 4.9%; kinase still bound, per cent of control [34]: 66%; kinase still bound, per cent of control [35]: 14%; kinase still bound, per cent of control [36]: 93%; kinase still bound, per cent of control [37]: 6.6%; kinase still bound, per cent of control [38]: 10%; kinase still bound, per cent of control [39]: 58%; kinase still bound, per cent of control [40]: 51%"
COc1ccc(N(C(=O)Oc2c(C)cccc2C)c2ccnc(Nc3ccc(N4CCN(C)CC4)cc3)n2)c(OC)c1,14%,39%,100%,100%,26%,0.25%,0%,16%,100%,73%,75%,92%,0%,100%,100%,100%,8.8%,23%,71%,72%,"kinase still bound, per cent of control [21]: 2.7%; kinase still bound, per cent of control [22]: 1.4%; kinase still bound, per cent of control [23]: 0%; kinase still bound, per cent of control [24]: 66%; kinase still bound, per cent of control [25]: 61%; kinase still bound, per cent of control [26]: 100%; kinase still bound, per cent of control [27]: 84%; kinase still bound, per cent of control [28]: 100%; kinase still bound, per cent of control [29]: 100%; kinase still bound, per cent of control [30]: 78%; kinase still bound, per cent of control [31]: 100%; kinase still bound, per cent of control [32]: 100%; kinase still bound, per cent of control [33]: 78%; kinase still bound, per cent of control [34]: 0.45%; kinase still bound, per cent of control [35]: 18%; kinase still bound, per cent of control [36]: 11%; kinase still bound, per cent of control [37]: 0.1%; kinase still bound, per cent of control [38]: 5.8%; kinase still bound, per cent of control [39]: 33%; kinase still bound, per cent of control [40]: 24%"
O=C1NC(=O)/C(=C/c2ccc3nccc(-c4ccncc4)c3c2)S1,82%,59%,82%,0.2%,90%,26%,36%,90%,7.1%,96%,0%,56%,83%,28%,5%,71%,98%,2.6%,24%,5.4%,"kinase still bound, per cent of control [21]: 85%; kinase still bound, per cent of control [22]: 67%; kinase still bound, per cent of control [23]: 90%; kinase still bound, per cent of control [24]: 69%; kinase still bound, per cent of control [25]: 75%; kinase still bound, per cent of control [26]: 74%; kinase still bound, per cent of control [27]: 0%; kinase still bound, per cent of control [28]: 95%; kinase still bound, per cent of control [29]: 90%; kinase still bound, per cent of control [30]: 45%; kinase still bound, per cent of control [31]: 22%; kinase still bound, per cent of control [32]: 0.2%; kinase still bound, per cent of control [33]: 0.15%; kinase still bound, per cent of control [34]: 90%; kinase still bound, per cent of control [35]: 39%; kinase still bound, per cent of control [36]: 0.15%; kinase still bound, per cent of control [37]: 62%; kinase still bound, per cent of control [38]: 100%; kinase still bound, per cent of control [39]: 0.05%; kinase still bound, per cent of control [40]: 74%"
